Reference: US7893045B2, “Methods for treating lymphomas in certain patient populations and screening patients for said therapy” (Celgene Corporation, priority 2007, dated 2011)

Experiments:
[1] = test system: relapsed and refractory aggressive non-Hodgkin's lymphoma (NHL); assay: Clinical Study 1: Phase II oral lenalidomide monotherapy in relapsed and refractory aggressive NHL; assay type: in vivo, human; details: for Median progression-free survival: FIG. 1
Procedure: A multi-center, open-label, Phase II study was conducted in patients with relapsed and refractory aggressive non-Hodgkin's lymphoma (NHL). The trial was designed for oral monotherapy with 3-(4-amino-1-oxo-1,3-dihydro-isoindol-2-yl)-piperidin-2,6-dione (Revlimid® or lenalidomide) in 49 patients with relapsed and refractory aggressive NHL following one or more prior treatment regimen with measurable disease. Patients in the study received lenalidomide in an amount of 25 mg orally once daily for days one to 21 in a 28-day cycle and continued therapy for 52 weeks as tolerated or until disease progression. A patient who achieved a complete response during the 52 week period was to receive two additional cycles of treatment prior to discontinuing treatment and entering the follow-up phase.
The patients who had received a median of 4 prior treatments (range: 1-7 prior treatments), were administered with lenalidomide in an amount of 25 mg orally once daily for 21 days in the treatment cycle of 28 days. Of the 49 patients, 26 had diffuse large cell lymphoma, 15 had mantle cell lymphoma, five patients had follicular lymphoma, and three had transformed lymphoma. Median time from diagnosis was 2.7 years (range 0.4-32) and patients had received a median of 4 (range […]) prior drug regimens for NHL. Ninety-three percent of the patients had received prior rituximab and 63% of the patients were rituximab refractory.

aggressive NHL [2] = assay: Clinical Study 2: lenalidomide monotherapy in aggressive NHL; assay type: in vivo, human
Procedure: In a separate clinical study, 86 patients received at least 25 mg of lenalidomide once daily on Days 1-21 every 28 days and continued therapy as tolerated or until disease progression. Forty-eight of these patients were evaluable for response assessment (Table 3). The median age was 65 years. The most common histology was DLBCL (63%). The median time from diagnosis to lenalidomide treatment was 2 years. Patients received a median of 4 prior treatment regimens for NHL. Median time from last rituximab treatment was 297 days. […] Ninety-six percent of the patients had received prior rituximab.

aggressive NHL [3] = assay: Study 1 and 2 taken together: response by predictive factors; assay type: in vivo, human
[4] = test system: peripheral T-cell lymphomas (PTCL); assay: Clinical Study 3: Phase II lenalidomide for peripheral T-cell lymphomas; assay type: in vivo; details: about 25 mg orally daily for 21 days followed by 7 days of rest; ten patients
Procedure: A multi-center, open label, phase II study was conducted to evaluate the efficacy of 3-(4-amino-1-oxo-1,3-dihydro-isoindol-2-yl)-piperidin-2,6-dione (lenalidomide) for peripheral T-cell lymphomas (PTCL). Patients with relapsed or refractory disease were eligible, as well as patients who had not previously had systemic therapy but who were ineligible for standard curative chemotherapy regimens due to comorbid illness. Each cycle (28 days) of treatment comprises administration of about 25 mg of 3-(4-amino-1-oxo-1,3-dihydro-isoindol-2-yl)-piperidin-2,6-dione (lenalidomide) given orally daily for 21 days followed by 7 days of rest, until disease progression, death or unacceptable toxicity.
Ten (9 males and 1 female) patients were enrolled. Median age of participants was 56 years (range, 42-76 years). Histologies of the patients included PTCL unspecified (n=4), angioimmunoblastic T-cell lymphoma (n=4), anaplastic large cell lymphoma (n=1), and gamma/delta T-cell lymphoma (n=1). Median number of prior lines of systemic therapy was one (range, 0-3). Median number of cycles was two (range, 1-8).

[5] = Aggressive, n=49, 25 mg orally once daily days 1-21 of 28-day cycle
[6] = DLBCL, n=26, 25 mg daily days 1-21 of 28
[7] = FCL, n=5, 25 mg daily days 1-21 of 28
[8] = MCL, n=15, 25 mg daily days 1-21 of 28
[9] = TSF, n=3, 25 mg daily days 1-21 of 28
[10] = of fourteen patients with SD at cycle 2
[11] = the four rituximab naïve patients
[12] = Aggressive NHL, 48 evaluable patients, at least 25 mg once daily Days 1-21 every 28 days
[13] = Diffuse large B-cell, 30 patients
[14] = Follicular center lymphoma grade 3, 1 patient
[15] = Mantle cell lymphoma, 14 patients
[16] = Transformed lymphoma, 3 patients
[17] = Study 1 and 2, time from rituximab <230 days, 40 patients
[18] = Study 1 and 2, time from rituximab ≧230 days, 57 patients
[19] = Study 1 and 2, tumor burden <50 cm^2, 66 patients
[20] = Study 1 and 2, tumor burden ≧50 cm^2, 29 patients

`Nc1cccc2c1CN(C1CCC(=O)NC1=O)C2=O` (centres unmarked) [lenalidomide, 3-(4-amino-1-oxo-1,3-dihydro-isoindol-2-yl)-piperidine-2,6-dione] was tested, and the response to lenalidomide ([1]; <230 days since last rituximab therapy) was 6%, the response to lenalidomide ([1]; >=230 days since last rituximab therapy) was 52% and the “CR, complete response (patients)” value [1, 5] was 2. For the same compound, the “CRu, complete response unconfirmed (patients)” value (from here on “CRu … (patients)”) [1, 5] was 4, the “PD, progressive disease (patients)” value [1, 5] was 21 and the “PR, partial response (patients)” value [1, 5] was 11. For the same compound, the “RR, response rate” value [1, 5] was 35%, the “CR, complete response (patients)” value ([1]; DLBCL, diffuse large B-cell lymphoma, n=26, 25 mg daily days 1-21 of 28) was 1 and the “CRu … (patients)” value [1, 6] was 2. The “PD, progressive disease (patients)” value [1, 6] was 14, the “PR, partial response (patients)” value [1, 6] was 2 and the “RR, response rate” value [1, 6] was 19%. For the same compound, the “CR, complete response (patients)” value ([1]; FCL, follicular-center lymphoma, n=5, 25 mg daily days 1-21 of 28) was 0, the “CRu … (patients)” value [1, 7] was 1 and the “PD, progressive disease (patients)” value [1, 7] was 2. The “PR, partial response (patients)” value [1, 7] was 2, the “RR, response rate” value [1, 7] was 60% and the “CR, complete response (patients)” value ([1]; MCL, mantle cell lymphoma, n=15, 25 mg daily days 1-21 of 28) was 1. The “CRu … (patients)” value [1, 8] was 1, the “PD, progressive disease (patients)” value [1, 8] was 5 and the “PR, partial response (patients)” value [1, 8] was 6. For the same compound, the “RR, response rate” value [1, 8] was 53%, the “CRu … (patients)” value [1, 9] was 0 and the “PD, progressive disease (patients)” value [1, 9] was 0. For the same compound, the “PR, partial response (patients)” value [1, 9] was 1, the “RR, response rate” value [1, 9] was 33% and the “CR, complete response (patients)” value ([1]; TSF, transformed lymphoma, n=3, 25 mg daily days 1-21 of 28) was 0. The response to lenalidomide ([1]; absolute lymphocyte count <=0.6×10^9/L) was 9%, the response to lenalidomide ([1]; absolute lymphocyte count >0.6×10^9/L) was 42% and the “patients with initial PR at 2 cycles who went on to CR/CRu with continued treatment” value ([1]; continued treatment) was “four”. The Response Rate ([1]; favorable values of disease burden, absolute lymphocyte count and time since last rituximab (n=23)) was 65%, the “patients with stable disease at the first (cycle 2) assessment” value ([1]; first assessment, cycle 2) was “Fourteen” and the response to lenalidomide ([1]; largest tumor lesion <=4.5 cm) was 55%. The response to lenalidomide ([1]; largest tumor lesion >4.5 cm) was 5%, the “patients with SD or PR at first assessment who improved their response with continued treatment” value ([1]; of 28 patients) was “seven” and the “share of patients with SD or PR at first assessment who improved their response” value ([1]; of 28 patients) was 25%. The “patients with an objective response” value ([1]; of 49 patients) was “Seventeen”, the “patients with SD at first assessment who went on to exhibit a response with continued treatment” value [1, 10] was “three” and the “share of patients with SD at first assessment who went on to exhibit a response” value [1, 10] was 21%. It also gave a response to lenalidomide ([1]; patients not refractory to rituximab) of 31%, a response to lenalidomide ([1]; patients refractory to rituximab) of 30% and a Median progression-free survival ([1]; patients with favorable prognostic values) of 7.5 months. The Median progression-free survival ([1]; patients with poor prognostic factors) was 1.9 months, the “patients with CR” value [1, 11] was “two” and the “patients with PR” value [1, 11] was 1. For the same compound, the “patients with SD” value [1, 11] was 1, the response to lenalidomide ([1]; tumor burden <50 cm^2) was 52% and the response to lenalidomide ([1]; tumor burden >=50 cm^2) was 0%. The Response Rate ([1]; unfavorable values for these prognostic values (n=26)) was 8%, the Median progression-free survival ([1]; whole group (all patients), Kaplan-Meier) was 3.7 months and the response to lenalidomide (aggressive NHL [2]; <230 days from rituximab to lenalidomide treatment) was 5%. For the same compound, the “ORR, overall response rate” value (aggressive NHL [2]; [12]) was 27%, the “PD, progressive disease (patients)” value (aggressive NHL [2]; [12]) was 25 and the “PR, partial response (patients)” value (aggressive NHL [2]; [12]) was 12. For the same compound, the “CR, complete response (patients)” value (aggressive NHL [2]; [13]) was 1, the “ORR, overall response rate” value (aggressive NHL [2]; [13]) was 20% and the “PD, progressive disease (patients)” value (aggressive NHL [2]; [13]) was 19. For the same compound, the “PR, partial response (patients)” value (aggressive NHL [2]; [13]) was 5, the “CR, complete response (patients)” value (aggressive NHL [2]; [14]) was 0 and the “ORR, overall response rate” value (aggressive NHL [2]; [14]) was 100%. The “PD, progressive disease (patients)” value (aggressive NHL [2]; [14]) was 0, the “PR, partial response (patients)” value (aggressive NHL [2]; [14]) was 1 and the “CR, complete response (patients)” value (aggressive NHL [2]; [15]) was 0. The “ORR, overall response rate” value (aggressive NHL [2]; [15]) was 36%, the “PD, progressive disease (patients)” value (aggressive NHL [2]; [15]) was 9 and the “PR, partial response (patients)” value (aggressive NHL [2]; [15]) was 5. The “CR, complete response (patients)” value (aggressive NHL [2]; [16]) was 0, the “ORR, overall response rate” value (aggressive NHL [2]; [16]) was 33% and the “PD, progressive disease (patients)” value (aggressive NHL [2]; [16]) was 1. The “PR, partial response (patients)” value (aggressive NHL [2]; [16]) was 1, the ORR (aggressive NHL [2]; favorable values for both tumor burden and time from rituximab (N=19)) was 53% and the response to lenalidomide (aggressive NHL [2]; tumor burden <50 cm^2) was 33%. For the same compound, the response to lenalidomide (aggressive NHL [2]; tumor burden ≧50 cm^2) was 14%, the ORR (aggressive NHL [2]; unfavorable values (N=29)) was 10% and the response to lenalidomide (aggressive NHL [2]; ≧230 days from rituximab to lenalidomide treatment) was 46%. The Responders (aggressive NHL [3]; Study 1 and 2, Favorable = tumor burden <50 cm^2 and time since last rituximab ≧230 days, 43 patients) was 26, the “Response Rate (ORR)” value (aggressive NHL [3]; Study 1 and 2, Favorable = tumor burden <50 cm^2 and time since last rituximab ≧230 days, N=43) was 60% and the Responders (aggressive NHL [3]; Study 1 and 2, Unfavorable = tumor burden ≧50 cm^2 and/or time since last rituximab <230 days, 54 patients) was 4. The “Response Rate (ORR)” value (aggressive NHL [3]; Study 1 and 2, Unfavorable = tumor burden ≧50 cm^2 and/or time since last rituximab <230 days, N=54) was 7.4%, the Responders (aggressive NHL [3]; [17]) was 2 and the “Response Rate” value (aggressive NHL [3]; [17]) was 5%. For the same compound, the Responders (aggressive NHL [3]; [18]) was 28, the “Response Rate” value (aggressive NHL [3]; [18]) was 49% and the Responders (aggressive NHL [3]; [19]) was 28. The “Response Rate” value (aggressive NHL [3]; [19]) was 42%, the Responders (aggressive NHL [3]; [20]) was 2 and the “Response Rate” value (aggressive NHL [3]; [20]) was 6.9%. The duration of response (aggressive NHL [3]; Study 1 and 2 taken together) was “approximately 6 months”, the Response Rate (aggressive NHL [3]; Study 1 and 2 taken together, all patients) was 31% and the side effects (aggressive NHL [3]; Study 1 and 2 taken together, monotherapy in aggressive NHL) was “manageable hematological side effects”. For the same compound, the “efficacy in peripheral T-cell lymphomas” value [4] was “effective in treating peripheral T-cell lymphomas” and the tolerability of therapy [4] was “generally been well tolerated”.
